Assay [1] can be described thus: The compound was tested against penicillinase (TEM) and its stability towards beta-lactamase was evaluated.
The nature of assay [2]: The compound was tested against penicillinase (TEM) and its stability towards beta-lactamase relative to cephaloridine was evaluated.
Assay [3] deals with Beta-lactamase (Bacteroides fragilis). The experiment in a line: The compound was tested against Bacteroides fragilis FP784 its stability towards beta-lactamase relative to cephaloridine was evaluated.
Assay [4] is described as follows: The compound was tested against Penicillinase (TEM) and its stability towards beta-lactamase relative to cephaloridine was evaluated. Type of assay: functional.

We go through two molecules from ChEMBL document CHEMBL1132501, “Synthesis and anti-Helicobacter pylori activity of FR182024, a new cephem derivative” (1999).

By Km is commonly meant the concentration of substrate that gives half-maximal velocity. In the case of `Cc1nnc(SC2=C(C(=O)O)N3C(=O)[C@@H](NC(=O)Cc4ccccc4)[C@H]3SC2)s1`, in assay [1], the Km is 47.4 µg/mL. In assay [2], the Vmax worked out at 3.61 and the Vmax / Km worked out at 6.33. Moreover, the Vmax / Km in assay [3] was 1.98.

On to `O=C(Cc1cccs1)N[C@@H]1C(=O)N2C(C(=O)[O-])=C(C[n+]3ccccc3)CS[C@H]12`, for which, in assay [4], the Vmax is 1 and the Vmax / Km turned out to be 1.
